Measured values as given in PubChem BioAssay (NCI).
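Assay format: 96-well plates, 48-hour exposure. GI50 is the concentration that inhibits growth by half. TGI: total growth inhibition.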

Tests used:
Test in all cases: NCI anticancer screen, dose series, 48 h; in the data active means GI50 below about 0.43 µM; inactive means the rest
[1] = system: HCT-116 colon
[2] = system: SW-620 colon
[3] = system: UACC-62 melanoma
[4] = system: MALME-3M melanoma
[5] = system: SNB-75 CNS
[6] = system: MDA-MB-435
[7] = system: CAKI-1 renal
[8] = system: RXF 393 renal
[9] = system: 786-0 renal
[10] = system: UACC-257 melanoma
[11] = system: NCI-H226 lung
[12] = system: COLO 205 colon
[13] = system: T-47D breast
[14] = system: HCT-15 colon
[15] = system: K-562 leukemia
[16] = system: SF-539 CNS
[17] = system: HL-60(TB) leukemia
[18] = system: IGROV1 ovarian
[19] = system: A549 NSCLC
[20] = system: NCI/ADR-RES ovarian
[21] = system: EKVX NSCLC
[22] = system: A498 renal
[23] = system: SK-MEL-5 melanoma
[24] = system: SN12C renal
[25] = system: DU-145 prostate
[26] = system: OVCAR-4 ovarian
[27] = system: HOP-62 NSCLC
[28] = system: MOLT-4 leukemia
[29] = system: OVCAR-8 ovarian
[30] = system: UO-31 renal
[31] = system: SF-295 CNS
[32] = system: TK-10 renal
[33] = system: RPMI-8226 leukemia
[34] = system: HOP-92 NSCLC
[35] = system: LOX IMVI melanoma
[36] = system: SK-MEL-28 melanoma
[37] = system: BT-549 breast
[38] = system: SK-MEL-2 melanoma
[39] = system: NCI-H522 lung
[40] = system: CCRF-CEM leukemia
[41] = system: NCI-H23 lung
[42] = system: SF-268 CNS
[43] = system: SNB-19 CNS
[44] = system: HT29 colon
[45] = system: MCF7 breast
[46] = system: M14 melanoma
[47] = system: U251 CNS
[48] = system: PC-3 prostate
[49] = system: SR leukemia
[50] = system: MDA-MB-231 breast
[51] = system: OVCAR-3 ovarian
[52] = system: KM12 colon
[53] = system: SK-OV-3 ovarian
[54] = system: OVCAR-5 ovarian
[55] = system: HS 578T breast
[56] = system: ACHN renal
[57] = system: HCC-2998 colon
[58] = system: NCI-H460 lung

O=[N+]([O-])c1ccc2c(c1)C(=NO)c1cc([N+](=O)[O-])ccc1-2
34 µM: TGI [23]
23.5 µM: TGI [30]
29.1 µM: TGI [11]
22.9 µM: TGI [17]
11 µM: TGI [39]
7.6 µM: TGI [18]
75.8 µM: TGI [5]
> 100 µM: TGI [1] | TGI [2] | TGI [3] | TGI [4] | TGI [6] | TGI [7] | TGI [8] | TGI [9] | TGI [10] | TGI [12] | TGI [13] | TGI [14] | TGI [15] | TGI [16] | TGI [19] | TGI [20] | TGI [21] | TGI [22] | TGI [24] | TGI [25] | TGI [26] | TGI [27] | TGI [29] | TGI [31] | TGI [32] | TGI [33] | TGI [34] | TGI [35] | TGI [36] | TGI [37] | TGI [38] | TGI [40] | TGI [41] | TGI [42] | TGI [43] | TGI [44] | TGI [45] | TGI [46] | TGI [47] | TGI [48] | TGI [50] | TGI [51] | TGI [52] | TGI [53] | TGI [54] | TGI [55] | TGI [57] | TGI [58]
9.86 µM: TGI [49]
7.61 µM: TGI [28]
39.7 µM: TGI [56]
inactive: GI50 [1] 6.71 µM | GI50 [2] 12.4 µM | GI50 [3] 11.5 µM | GI50 [4] 11.7 µM | GI50 [5] 7.18 µM | GI50 [6] 22.5 µM | GI50 [7] 6.46 µM | GI50 [8] > 100 µM | GI50 [9] 10.8 µM | GI50 [10] 62.6 µM | GI50 [11] 10.9 µM | GI50 [12] 39.5 µM | GI50 [13] 79 µM | GI50 [14] 8.92 µM | GI50 [15] 11.7 µM | GI50 [16] 37.7 µM | GI50 [17] 4.19 µM | GI50 [18] 2.52 µM | GI50 [19] 7.23 µM | GI50 [20] 16.3 µM | GI50 [21] 12.9 µM | GI50 [22] 54 µM | GI50 [23] 12.1 µM | GI50 [24] 20.5 µM | GI50 [25] 55.1 µM | GI50 [26] 12.7 µM | GI50 [27] 46.5 µM | GI50 [28] 3.25 µM | GI50 [29] 74.7 µM | GI50 [30] 3.12 µM | GI50 [31] 13.5 µM | GI50 [32] 12.6 µM | GI50 [33] 29.4 µM | GI50 [34] 53.7 µM | GI50 [35] 13.8 µM | GI50 [36] 43.4 µM | GI50 [37] 50.8 µM | GI50 [38] > 100 µM | GI50 [39] 1.62 µM | GI50 [40] 13.6 µM | GI50 [41] 25.3 µM | GI50 [42] 33.6 µM | GI50 [43] > 100 µM | GI50 [44] 19.5 µM | GI50 [45] 4.92 µM | GI50 [46] 21.5 µM | GI50 [47] 10.7 µM | GI50 [48] 24.2 µM | GI50 [49] 2.88 µM | GI50 [50] 36.3 µM | GI50 [51] 68.4 µM | GI50 [52] 18.6 µM | GI50 [53] > 100 µM | GI50 [54] > 100 µM | GI50 [55] > 100 µM | GI50 [56] 4.98 µM | GI50 [57] 37.1 µM | GI50 [58] 4.82 µM
